Data on 18 compounds can be found in patent publication US20240239799A1, “(S)-1-(5-((PYRIDIN-3-YL)THIO)PYRAZIN-2-YL)-4'H,6'H-SPIRO[PIPERIDINE-4,5'-PYRROLO [1,2-B]PYRAZOL]-4'-AMINE DERIVATIVES AND SIMILAR COMPOUNDS AS SHP2 INHIBITORS FOR THE TREATMENT OF E.G. CANCER” (C.N.C.C.S. S.C.A.R.L. COLLEZIONE NAZIONALE DEI COMPOSTI …, priority 2021, published 2024).

Assay [1] relates to phospho-ERK1/2 (Thr202/Tyr204) in KYSE-520 cells. The experiment in a line: Phospho-ERK cellular assay (TR-FRET). Type of assay: cell-based. Conditions: Homo sapiens, KYSE-520, 2 h, read-out: pERK IC50. The method, then:
ERK phosphorylation was detected using the “Advanced phospho-ERK1/2 (Thr202/Tyr204)” TR-FRET kit (Cisbio, Cat #64AERPEG/H), following the manufacturer reagents and instructions.
Briefly, 20.000/well KYSE-520 cells (DSMZ ACC 371) were plated in 6 μL RPMI-1640 (Invitrogen) growth medium, into 384 white low-volume high base TC microplates (Greiner). After an overnight incubation, cells were treated with DMSO serial diluted compounds and incubated for 2 h at 37° C. After incubation, 2 μL/well of 4X Lysis Buffer (Cisbio 64KL1FDF), were added and incubated with cells for 30 min on gentle shaking. Finally, lysates were added with 2 μL/well of Eu cryptate (donor) and D2 (acceptor) conjugated antibodies (as provided by the Cisbio kit #64AERPEG/H) diluted 1:100 in Detection Buffer (as provided by the Cisbio kit #64AERPEG/H). Plates were then sealed and incubated at rt in the dark. After an overnight incubation, the TR-FRET signal was detected on a suitable reader (Envision, PerkinElmer). The lower the TR-FRET signal the higher the higher the SHP2 inhibition in cells.
The activity of each compound dilution was calculated as percentage between vehicle DMSO treated cells and no cells, 0% inhibition and 100% inhibition respectively. The percentage activity is fitted against the compound dilutions with a four-parameter logistic regression. The inflection point (i.e. the concentration at which half-maximal inhibition is achieved) is the IC50.

Assay [2] addresses T1, SHP-2 enzyme (Met1-Leu525) (Homo sapiens, UniProt Q06124).
T1 construct: synthetized by Origene, Met1-Leu525, cat #TP750155; purchased Origene TP750155
T1 sequence (Q06124 1-525): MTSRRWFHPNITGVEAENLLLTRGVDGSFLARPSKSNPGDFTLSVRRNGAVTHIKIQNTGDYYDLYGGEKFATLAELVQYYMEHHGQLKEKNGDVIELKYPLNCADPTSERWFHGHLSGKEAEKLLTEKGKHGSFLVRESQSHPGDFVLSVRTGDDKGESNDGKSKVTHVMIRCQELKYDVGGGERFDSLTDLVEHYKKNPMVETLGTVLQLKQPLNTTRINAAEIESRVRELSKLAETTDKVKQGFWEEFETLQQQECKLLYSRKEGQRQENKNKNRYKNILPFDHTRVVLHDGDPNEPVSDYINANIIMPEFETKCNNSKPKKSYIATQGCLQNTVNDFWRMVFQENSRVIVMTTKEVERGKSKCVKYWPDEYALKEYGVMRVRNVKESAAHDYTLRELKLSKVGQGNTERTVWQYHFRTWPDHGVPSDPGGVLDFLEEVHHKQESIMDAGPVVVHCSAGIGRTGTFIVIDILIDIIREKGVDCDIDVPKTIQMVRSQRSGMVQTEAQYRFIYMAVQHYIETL
The assay is described as follows: SHP2 inhibition enzymatic assay (DiFMUP substrate, IRS1 peptide activation). Type of assay: biochemical. Conditions: 0.5 nM SHP-2, 500 nM IRS1 peptide, 75 μM DiFMUP; read-out: SHP2wt - IC50. As to the method: Assay volume of 20 μL/well was assembled in 384 well black polystyrene low-binding microplates (Greiner), using the following buffer: 60 mM HEPES pH 7.2, 75 mM NaCl, 75 mM KCl, 1 mM EDTA pH 8, 0.05% tween-20, 5 mM DTT. The SHP-2 enzyme (synthetized by Origene, Met1-Leu525, cat #TP750155) was used at a final concentration of 0.5 nM.
Briefly, DMSO serially diluted testing compounds were transferred to the bottom of the assay plate. SHP2 was then added together with the IRS1 peptide 30 min post incubation, the DiFMUP substrate was added to the reaction and incubated 30 min at rt. […] The fluorescence was detected by a microplate reader (Envision, PerkinElmer) according to the DiFMUP excitation and emission wavelength. The lower the fluorescence the higher the SHP2 inhibition.
The percentage inhibition is fitted against the compound dilutions with a four-parameter logistic regression. The inflection point (i.e. the concentration at which half-maximal inhibition is achieved) is the IC50.

Like-named read-outs stand apart in the source and are kept apart here.

Take `N[C@@H]1c2ccnn2CC12CCN(c1cnc3c(-c4ccnc(-n5cccn5)c4Cl)n[nH]c3n1)CC2` [Example 71, (S)-1-(3-(3-chloro-2-(1H-pyrazol-1-yl)pyridin-4-yl)-1H-pyrazolo[3,4-b]pyrazin-6-yl)-4′H,6′H-spiro[piperidine-4,5′-pyrrolo[1,2-b]pyrazol]-4′-amine]: the 50% inhibitory concentration (IC50) in assay [1] (KYSE-520 cells, 2 h at 37° C.) is 100 to 500 nM; in assay [2], not above 50 nM.

On to `CN(C)C(=O)c1cn2ccc(Sc3cnc(N4CCC5(CC4)Cn4nccc4[C@H]5N)cn3)c(Cl)c2n1` [Example 68, (S)-7-((5-(4′-amino-4′H,6′H-spiro[piperidine-4,5′-pyrrolo[1,2-b]pyrazol]-1-yl)pyrazin-2-yl)thio)-8-chloro-N,N-dimethylimidazo[1,2-a]pyridine-2-carboxamide], for which the IC50 was less than 100 nM in assay [1] (KYSE-520 cells, 2 h at 37° C.) and not above 50 nM in assay [2].

Regarding `Nc1nccc(Sc2cnc3[nH]c(N4CCC5(CC4)Cn4nccc4[C@H]5N)nc3n2)c1Cl` [Example 2, (S)-1-(5-((2-amino-3-chloropyridin-4-yl)thio)-1H-imidazo[4,5-b]pyrazin-2-yl)-4′H,6′H-spiro[piperidine-4,5′-pyrrolo[1,2-b]pyrazol]-4′-amine], the IC50 in assay [1] (KYSE-520 cells, 2 h at 37° C.) is more than 500 nM; in assay [2], not above 50 nM.

In the case of `N[C@@H]1c2ccnn2CC12CCN(c1cnc(Sc3ccncc3Cl)cn1)CC2` [Example 80, (S)-1-(5-((3-chloropyridin-4-yl)thio)pyrazin-2-yl)-4′H,6′H-spiro[piperidine-4,5′-pyrrolo[1,2-b]pyrazol]-4′-amine], the IC50 is less than 100 nM in assay [1] (KYSE-520 cells, 2 h at 37° C.) and not above 50 nM in assay [2].

As to `N[C@@H]1c2ccnn2CC12CCN(c1nccn3c(-c4cccc(Cl)c4Cl)ncc13)CC2` [Example 85, (S)-1-(3-(2,3-dichlorophenyl)imidazo[1,5-a]pyrazin-8-yl)-4′H,6′H-spiro[piperidine-4,5′-pyrrolo[1,2-b]pyrazol]-4′-amine], the IC50 in assay [1] (KYSE-520 cells, 2 h at 37° C.) was less than 100 nM; in assay [2], not above 50 nM.

For `Cc1nc(N2CCC3(CC2)Cn2cccc2[C@H]3N)cc(=O)n1-c1cccc(Cl)c1Cl` [Example 86, (S)-6-(1′-amino-1′H,3′H-spiro[piperidine-4,2′-pyrrolizin]-1-yl)-3-(2,3-dichlorophenyl)-2-methylpyrimidin-4(3H)-one], the results for the IC50 in assay [1] and in assay [2] were 100 to 500 nM and not above 50 nM, respectively.

`Nc1nccc(Sc2cnc(N3CCC4(CC3)Cn3cnnc3[C@H]4N)cn2)c1Cl` [Example 42, (S)-1-(5-((2-amino-3-chloropyridin-4-yl)thio)pyrazin-2-yl)-5′H,7′H-spiro[piperidine-4,6′-pyrrolo[2,1-c][1,2,4]triazol]-7′-amine]: the IC50 in assay [1] (KYSE-520 cells, 2 h at 37° C.) was more than 500 nM; in assay [2] it was 50 to 300 nM.

`N[C@@H]1c2c(F)cnn2CC12CCN(c1cnc(Sc3ccn4c(Cl)cnc4c3Cl)cn1)CC2` [Example 50, (S)-1-(5-((3,8-dichloroimidazo[1,2-a]pyridin-7-yl)thio)pyrazin-2-yl)-3′-fluoro-4′H,6′H-spiro[piperidine-4,5′-pyrrolo[1,2-b]pyrazol]-4′-amine]: the IC50 in assay [1] (KYSE-520 cells, 2 h at 37° C.) was less than 100 nM; in assay [2], not above 50 nM.

For the compound `N[C@@H]1c2ccnn2CC12CCN(c1ncc(Sc3ccnc4c3OC[C@H]3CC5(CC5)CN43)n3cncc13)CC2` [Example 24, (S)-1-(5-(((R)-6a′,7′-dihydro-6′H,9′H-spiro[cyclopropane-1,8′-pyrido[3,2-b]pyrrolo[1,2-d][1,4]oxazin]-4′-yl)thio)imidazo[1,5-a]pyrazin-8-yl)-4′H,6′H-spiro[piperidine-4,5′-pyrrolo[1,2-b]pyrazol]-4′-amine], the IC50 in assay [1] (KYSE-520 cells, 2 h at 37° C.) was more than 500 nM; in assay [2], 50 to 300 nM.

`NC(=O)c1cnn(-c2nccc(Sc3cnc(N4CCC5(CC4)Cn4nccc4[C@H]5N)cn3)c2Cl)c1` [Example 65, (S)-1-(4-((5-(4′-amino-4′H,6′H-spiro[piperidine-4,5′-pyrrolo[1,2-b]pyrazol]-1-yl)pyrazin-2-yl)thio)-3-chloropyridin-2-yl)-1H-pyrazole-4-carboxamide]: the IC50 is less than 100 nM in assay [1] (KYSE-520 cells, 2 h at 37° C.) and not above 50 nM in assay [2].

Turning to `N[C@@H]1c2ccnn2CC12CCN(c1cnc(Sc3ccn4cnnc4c3Cl)cn1)CC2` [Example 51, (S)-1-(5-((8-chloro-[1,2,4]triazolo[4,3-a]pyridin-7-yl)thio)pyrazin-2-yl)-4′H,6′H-spiro[piperidine-4,5′-pyrrolo[1,2-b]pyrazol]-4′-amine], the half-maximal inhibitory concentration (IC50) in assay [1] (KYSE-520 cells, 2 h at 37° C.) is 100 to 500 nM; in assay [2], not above 50 nM.

On to `COc1cc2n(n1)CC1(CCN(c3cnc(Sc4ccnc(N)c4Cl)cn3)CC1)[C@@H]2N` [Example 12, (S)-1-(5-((2-amino-3-chloropyridin-4-yl)thio)pyrazin-2-yl)-2′-methoxy-4′H,6′H-spiro[piperidine-4,5′-pyrrolo[1,2-b]pyrazol]-4′-amine], for which the IC50 in assay [1] (KYSE-520 cells, 2 h at 37° C.) is 100 to 500 nM; in assay [2] it was not above 50 nM.

As for `N[C@@H]1c2cnnn2CC12CCN(c1cnc3c(-c4cccc(Cl)c4Cl)n[nH]c3n1)CC2` [Example 41, (S)-1-(3-(2,3-dichlorophenyl)-1H-pyrazolo[3,4-b]pyrazin-6-yl)-4′H,6′H-spiro[piperidine-4,5′-pyrrolo[1,2-c][1,2,3]triazol]-4′-amine], the IC50 is more than 500 nM in assay [1] (KYSE-520 cells, 2 h at 37° C.) and not above 50 nM in assay [2].

In the case of `Nc1nccc(-c2n[nH]c3nc(N4CCC5(CC4)Cn4nccc4[C@H]5N)cnc23)c1Cl` [Example 40, (S)-1-(3-(2-amino-3-chloropyridin-4-yl)-1H-pyrazolo[3,4-b]pyrazin-6-yl)-4′H,6′H-spiro[piperidine-4,5′-pyrrolo[1,2-b]pyrazol]-4′-amine], the IC50 is less than 100 nM in assay [1] (KYSE-520 cells, 2 h at 37° C.) and not above 50 nM in assay [2].

As for `N[C@@H]1c2ccnn2CC12CCN(c1cnc(Sc3ccnc(-n4cccn4)c3Cl)c3cncn13)CC2` [Example 75, (S)-1-(8-((3-chloro-2-(1H-pyrazol-1-yl)pyridin-4-yl)thio)imidazo[1,5-a]pyrazin-5-yl)-4′H,6′H-spiro[piperidine-4,5′-pyrrolo[1,2-b]pyrazol]-4′-amine], the IC50 is 100 to 500 nM in assay [1] (KYSE-520 cells, 2 h at 37° C.) and not above 50 nM in assay [2].

As for `Nc1nc(N2CCC3(CC2)Cn2nccc2[C@H]3N)cnc1Sc1ccnc(-n2ccnc2)c1Cl` [Example 63, (S)-1-(6-amino-5-((3-chloro-2-(1H-imidazol-1-yl)pyridin-4-yl)thio)pyrazin-2-yl)-4′H,6′H-spiro[piperidine-4,5′-pyrrolo[1,2-b]pyrazol]-4′-amine], the IC50 in assay [1] (KYSE-520 cells, 2 h at 37° C.) was less than 100 nM; in assay [2], not above 50 nM.

For `Nc1cnc(Sc2cnc(N3CCC4(CC3)Cn3nccc3[C@H]4N)cn2)c(Cl)n1` [Example 47, (S)-1-(5-((5-amino-3-chloropyrazin-2-yl)thio)pyrazin-2-yl)-4′H,6′H-spiro[piperidine-4,5′-pyrrolo[1,2-b]pyrazol]-4′-amine], the IC50 in assay [1] (KYSE-520 cells, 2 h at 37° C.) is less than 100 nM; in assay [2], not above 50 nM.

Take `NC(=O)c1ccn(-c2nccc(Sc3cnc(N4CCC5(CC4)Cn4nccc4[C@H]5N)cn3)c2Cl)c1` [Example 66, (S)-1-(4-((5-(4′-amino-4′H,6′H-spiro[piperidine-4,5′-pyrrolo[1,2-b]pyrazol]-1-yl)pyrazin-2-yl)thio)-3-chloropyridin-2-yl)-1H-pyrrole-3-carboxamide]: the IC50 was less than 100 nM in assay [1] (KYSE-520 cells, 2 h at 37° C.) and not above 50 nM in assay [2].
